# Test results reported in PMC9610298, “Synthesis, Biological Evaluation and Machine Learning Prediction Model for Fluorinated Cinchona Alkaloid-Based Derivatives as Cholinesterase Inhibitors” (Pharmaceuticals, 2022).
# Experiments:
# [1] = target: recombinant human AChE (Homo sapiens, UniProt P22303); assay: Reversible inhibition of AChE, Ellman method, enzyme-inhibitor dissociation constants; assay type: biochemical; settings: ± standard error; ATCh substrate, 25 °C, pH 7.4
# Procedure: (§1) As a source of BChE, a purified human BChE, and as AChE, a recombinant human AChE was used, both enzymes kindly provided by Dr. F. Nachon (Département de Toxicologie, Armed Forces Biomedical Research Institute, France). The concentrated stocks of enzymes (BChE: 5.6 µM; AChE: 0.20 µM) were diluted in a phosphate sodium buffer 0.1 M (pH 7.4) containing 0.1% BSA before starting the experiments.
# (§2) Enzyme activities were measured spectrophotometrically by the Ellman method at […] using 0.30 mM DTNB as thiol reagent, ATCh as substrate and water in 0.1 M phosphate buffer, pH 7.4. For the inhibition measurements, the reaction mixture contained tested compounds instead of water. […] Measurements were done at 25 °C on a Tecan Infinite M200Pro plate reader (Austria). A detailed description of measurement protocol was described previously.
# (§3) The reversible inhibition of BChE and AChE by tested compounds was measured by determining the decrease of enzyme activity towards ATCh in their presence. The activities of the enzymes were measured at different substrate concentrations ([S]; 0.050–0.50 mM) in the absence (v0) and presence (vi) of the given tested compounds concentration ([I]; 0.050–200 µM, depending on the compound) selected to inhibit the enzymes for 20–80%. At least three concentrations of inhibitors for each substrate concentration were used in at least three experiments. The apparent dissociation inhibition constant (Ki,app) was calculated applying the Hunter-Downs equation and linear regression analysis (1):(1) Ki,app=vi/v0−vi⋅I=KI+KI/KS⋅S where y-intercept determines the enzyme-inhibitor dissociation constants (K(I)), while x-intercept determines the enzyme-substrate dissociation constant, K(S). The determination of kinetic constants was carried out using the GraphPadPrism 6.0 program (GraphPad Software, San Diego, CA, USA).
# [2] = target: T1, purified human BChE (Homo sapiens, UniProt P06276); assay: Reversible inhibition of BChE, Ellman method, enzyme-inhibitor dissociation constants; assay type: biochemical; settings: for SI, selective index Ki(AChE)/Ki(BChE): times higher preference for BChE over AChE; for Ki: ± standard error, ATCh substrate, 25 °C, pH 7.4
# Procedure: as §1, §2, §3
# [3] = target: T1, purified human BChE; settings: earlier determined; cited from earlier work
# T1 sequence (P06276 29-602): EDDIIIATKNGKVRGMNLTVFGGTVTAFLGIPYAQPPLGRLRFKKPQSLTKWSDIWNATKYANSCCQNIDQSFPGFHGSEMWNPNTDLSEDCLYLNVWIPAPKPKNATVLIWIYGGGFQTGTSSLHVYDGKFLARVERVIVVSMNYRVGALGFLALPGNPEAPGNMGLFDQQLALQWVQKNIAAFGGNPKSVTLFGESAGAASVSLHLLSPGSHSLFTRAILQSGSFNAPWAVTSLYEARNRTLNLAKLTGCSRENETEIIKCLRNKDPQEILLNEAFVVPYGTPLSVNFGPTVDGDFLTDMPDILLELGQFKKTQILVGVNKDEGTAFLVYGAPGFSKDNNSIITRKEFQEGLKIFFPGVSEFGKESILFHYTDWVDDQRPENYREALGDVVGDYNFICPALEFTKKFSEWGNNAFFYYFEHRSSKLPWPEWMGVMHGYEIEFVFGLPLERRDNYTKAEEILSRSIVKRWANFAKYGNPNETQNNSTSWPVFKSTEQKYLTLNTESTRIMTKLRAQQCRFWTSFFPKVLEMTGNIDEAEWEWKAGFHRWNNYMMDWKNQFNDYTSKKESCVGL
# recombinant human AChE, sequence (P22303 32-614): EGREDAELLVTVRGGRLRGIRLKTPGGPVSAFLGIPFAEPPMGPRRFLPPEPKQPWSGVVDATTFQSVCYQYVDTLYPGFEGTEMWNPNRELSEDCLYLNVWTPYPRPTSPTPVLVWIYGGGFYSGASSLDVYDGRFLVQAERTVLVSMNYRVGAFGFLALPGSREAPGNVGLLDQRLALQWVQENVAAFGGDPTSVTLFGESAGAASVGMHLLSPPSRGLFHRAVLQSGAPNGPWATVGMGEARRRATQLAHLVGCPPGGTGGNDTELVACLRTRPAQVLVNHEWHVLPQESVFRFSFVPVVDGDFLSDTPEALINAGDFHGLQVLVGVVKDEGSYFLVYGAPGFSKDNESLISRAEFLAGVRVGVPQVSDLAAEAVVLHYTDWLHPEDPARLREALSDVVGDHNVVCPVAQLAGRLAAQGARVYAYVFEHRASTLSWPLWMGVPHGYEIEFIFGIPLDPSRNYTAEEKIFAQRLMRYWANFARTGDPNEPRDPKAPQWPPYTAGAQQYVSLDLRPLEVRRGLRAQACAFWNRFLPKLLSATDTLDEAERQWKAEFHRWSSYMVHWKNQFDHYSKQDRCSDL
SMILES,Ki [1],"SI, selective index Ki(AChE)/Ki(BChE) [2]",Ki [2],selectivity to BChE over AChE (times) [3]
"CCC1C[N+]2(Cc3ccc(OC(F)(F)F)cc3)CCC1C[C@H]2[C@H](O)c1ccnc2ccccc12 (stereo partly shown) [DHCD 4OCF3, N-(4-trifluoromethoxybenzyl)-10,11-dihydrocinchonidinium bromide]",17 ± 1 µM,3,5.9 ± 0.2 µM,–
CCC1C[N+]2(Cc3ccccc3)CCC1C[C@H]2[C@H](O)c1ccnc2ccccc12 (stereo partly shown) [DHCD Bzl],4.8 ± 0.4 µM,12,0.4 ± 0.02 µM,–
"CCC1CN2CCC1CC2C(O)c1ccnc2ccccc12 (stereo not shown) [DHCD, 10,11-dihydrocinchonidine]",206 ± 6 µM,11,19 ± 2 µM,–
CCC1C[N+]2(Cc3cccc(C(F)(F)F)c3)CCC1C[C@@H]2[C@@H](O)c1ccnc2ccccc12 (stereo partly shown) [DHCN 3CF3],41 ± 2 µM,34,1.2 ± 0.05 µM,–
"CCC1C[N+]2(Cc3cccc(F)c3)CCC1C[C@@H]2[C@@H](O)c1ccnc2ccccc12 (stereo partly shown) [DHCN 3F, N-(3-fluorobenzyl)-10,11-dihydrocinchoninium bromide]",20 ± 1 µM,20,1.2 ± 0.1 µM,–
"CCC1C[N+]2(Cc3cccc(OC(F)(F)F)c3)CCC1C[C@@H]2[C@@H](O)c1ccnc2ccccc12 (stereo partly shown) [DHCN 3OCF3, N-(3-trifluoromethoxybenzyl)-10,11-dihydrocinchoninium bromide]",68 ± 1 µM,52,1.3 ± 0.5 µM,–
CCC1C[N+]2(Cc3ccc(C(F)(F)F)cc3)CCC1C[C@@H]2[C@@H](O)c1ccnc2ccccc12 (stereo partly shown) [DHCN 4CF3],18 ± 1 µM,9,1.6 ± 0.1 µM,–
"CCC1C[N+]2(Cc3ccc(F)cc3)CCC1C[C@@H]2[C@@H](O)c1ccnc2ccccc12 (stereo partly shown) [DHCN 4F, N-(4-fluorobenzyl)-10,11-dihydrocinchoninium bromide]",64 ± 2 µM,40,1.6 ± 0.1 µM,–
"CCC1C[N+]2(Cc3ccc(OC(F)(F)F)cc3)CCC1C[C@@H]2[C@@H](O)c1ccnc2ccccc12 (stereo partly shown) [DHCN 4OCF3, N-(4-trifluoromethoxybenzyl)-10,11-dihydrocinchoninium bromide]",22 ± 1 µM,10,2.2 ± 0.1 µM,–
CCC1C[N+]2(Cc3ccccc3)CCC1C[C@@H]2[C@@H](O)c1ccnc2ccccc12 (stereo partly shown) [DHCN Bzl],21 ± 1 µM,23,0.9 ± 0.04 µM,–
C=CC1C[N+]2(Cc3ccc(Br)cc3)CCC1CC2C(O)c1ccnc2ccccc12 (stereo not shown) [N-para-bromobenzyl CD derivative],–,–,–,510
